Assay results published in patent US6426061B1, “Method and composition for preventing sweat-related odor” (priority 2001, dated 2002).

Legend:
[1] = system: androgen receptor; conditions: prostate cancer cells; cited from earlier work
[2] = system: underarm odor, axillae skin of a panel of human subjects; assay: Deodorant value test (modified): underarm odor scored 0-5 by three assessors every 24 h; assay type: in vivo; conditions: Example 2; single solution on one axilla versus vehicle on the other; compared with 8.2% aluminum chlorohydrate and 0.4% chlorhexidine digluconate
Description: A test for the deodorant effects of monensin or resveratrol alone was first carried out. The positive controls were 8.2% aluminum chlorohydrate, a level that is used in most deodorant or antiperspirant products on the market and 0.4% chlorhexidine digluconate, a level that is usually used for bacterial killing. The negative control was a vehicle consisting of 60% ethanol and 40% water. Three experienced underarm odor assessors who are able to correctly rank the odor intensities based on the deodorant value test system U.S. Pat. No. 4,278,658) performed odor assessments. I)odorant assessment scores were recorded according to the inalodor category scale, when applied directly to the axillae skin of a panel of human subjects.
The test described in deodorant value test system has been modified by measuring odor intensity every 24 hours after treatment until odor intensity is detectable (score 1 or up) on a 0-5 score instead of just 24 hours after treatment.
In this test, twenty subjects selected by experienced odor assessors have an average odor score of 3.5 (range from score 3-5). To prevent any any-over effects from occurring, all of subjects have not used any underarm products before test for at least 10 days. […] At 24 hour intervals, each subject was evaluated for underarm odor by averaging the score of the three assessors until odor in test groups was detectable (score 1 or up). […]

[3] = system: apo D; conditions: cited from earlier work

SMILES	effect on expression and function of the androgen receptor [1]	effectiveness in preventing underarm odor (deodorant effect, FIG. 1) [2]	effect on secretion of apo D from cells [3]
Oc1ccc(C=Cc2cc(O)cc(O)c2)cc1 [Resveratrol, resveratrol]	inhibit the expression and function of the androgen receptor		
CC[C@@]1([C@@H]2O[C@@H]([C@H]3O[C@@](O)(CO)[C@H](C)C[C@@H]3C)C[C@@H]2C)CC[C@H]([C@]2(C)CC[C@]3(C[C@H](O)[C@@H](C)[C@@H]([C@@H](C)[C@@H](OC)[C@H](C)C(=O)O)O3)O2)O1 [monensin]		more effective in preventing underarm odor than the positive control products	decreases secretion of apo D from cells
